What was measured:
rat HF models = settings: cited from earlier work
[1] = test system: phosphorylation of serine 23-24 on troponin I; assay: Cardiomyocyte protein immunoblotting of troponin I phosphorylation; type: cell-based, mouse; settings: for troponin I serine 23-24 phosphorylation signal: 15 min treatment, vs placebo
Experimental: Isolated cardiomyocytes were treated for 15 min in different conditions (Placebo, Ghrelin, D-Lys 3 GHS-R1a, D-Lys 3 GHS-R1a+Ghrelin). Thereafter cardiomyocytes were pelleted and homogenated. Protein lysates were separated by electrophoresis and transferred onto membranes. Membranes were incubated with primary antibody: rabbit phospho-troponin I (cardiac) ([…]) antibody (Cell Signaling #4004), mouse troponin 1 (Millipore MAB1691A). Then infrared-labelled secondary antibodies (IRDye 680 and IRDye 800, 1:5000, Licor) were used. Immunoreactive bands were analyzed using the Odyssey Infrared Imaging System. Band densities were quantified with Image J, normalized to GAPDH and final data expressed as fold increase compared to Placebo group.

SMILES: CCCCCCCC(=O)OC[C@H](NC(=O)[C@H](CO)NC(=O)CN)C(=O)N[C@@H](Cc1ccccc1)C(=O)N[C@@H](CC(C)C)C(=O)N[C@@H](CO)C(=O)N1CCC[C@H]1C(=O)N[C@@H](CCC(=O)O)C(=O)N[C@@H](Cc1cnc[nH]1)C(=O)N[C@@H](CCC(N)=O)C(=O)N[C@@H](CCCNC(=N)N)C(=O)N[C@H](C(=O)N[C@@H](CCC(N)=O)C(=O)N[C@@H](CCC(N)=O)C(=O)N[C@@H](CCCNC(=N)N)C(=O)N[C@@H](CCCCN)C(=O)N[C@@H](CCC(=O)O)C(=O)N[C@@H](CO)C(=O)N[C@@H](CCCCN)C(=O)N[C@@H](CCCCN)C(=O)N1CCC[C@H]1C(=O)N1CCC[C@H]1C(=O)N[C@@H](C)C(=O)N[C@@H](CCCCN)C(=O)N[C@@H](CC(C)C)C(=O)N[C@@H](CCC(N)=O)C(=O)N1CCC[C@H]1C(=O)N[C@@H](CCCNC(=N)N)C(=O)O)C(C)C [Ghrelin]
- CO and fractional shortening (rat HF models; rat HF models (Nagaya et al., 2001d)): increased CO and fractional shortening
- cardiac sympathetic activity and LV remodeling (rat HF models; rat myocardial infarction models): reduced cardiac sympathetic activity and left ventricular (LV) remodeling
- total troponin I expression [1]: without change
- troponin I serine 23-24 phosphorylation signal [1]: less cTnI phosphorylation (hypophosphorylation)
- troponin I serine 23-24 phosphorylation signal ([1]; listed as ghrelin): lower compared to placebo

— patent US20230346889A9, “TREATMENT OF ACUTE HEART FAILURE” (AnaCardio R&D AB, priority 2019, published 2023)
